Here are results for four molecules from ChEMBL document CHEMBL1131786, “Synthesis of probes for the active site of leucine dehydrogenase” (Bioorg Med Chem Lett, 1999).

For orientation: inhibition means how much of the control response was suppressed. Low values mean a response near the control, high ones a response far below the control.

Test [1] deals with Sporosarcina. The experiment in a line: Compound was evaluated for the inhibition of Phenylalanine dehydrogenase of Sporosarcina species. As to conditions: concentration not given here.
Test [2] deals with Bacillus. The experiment in a line: Compound was evaluated for the inhibition of Leucine dehydrogenase of Bacillus species. Particulars: concentration not given here.

With `C[C@H](O)[C@H](N)C(=O)O`, the inhibition in test [1] stood at 53%.

Regarding `COCO[C@H](C)C(=O)C(=O)O`, in test [2], the inhibition worked out at 8%. `COCO[C@@H](C)C(=O)C(=O)O`: in test [2], the inhibition came out at 93%. In test [1], `C[C@@H](O)[C@H](N)C(=O)O` came in with an inhibition of 61%.
